# Patent publication US9999650B2, “Peptide and peptidomimetic inhibitors” (Ra Pharmaceuticals, Inc., priority 2012, dated 2018)
# Read-outs that look alike come from different tables or passages of the source. Numbered stars: 1 amine (or outer) side, 2 acyl side, 3 side chain; on linkers, the order of the positions; unused ones are H or OH. Bridge positions count the residues as written; N and C are the ends. Square brackets hold non-standard residues; d marks the D form. Peptide text beside a SMILES is read from it. mXylylene = c1cc(C[*:1])cc(C[*:2])c1; Phg = N[C@H](C(=O)O)c1ccccc1
# Columns and labels:
# Type in all cases: biochemical
# Factor VIIa = biological target: T1, Factor VIIa (Homo sapiens, UniProt P08709); test: Inhibitor specificity IC50 assay, Factor VIIa (Boc-Val-Pro-Arg-AMC); details: substrate Boc-Val-Pro-Arg-AMC
# T1 construct: Factor VIIa (Enzyme Research Laboratories, South Bend, Ind.); purchased Enzyme Research Laboratories
# T1 sequence (P08709 61-212 limits assumed): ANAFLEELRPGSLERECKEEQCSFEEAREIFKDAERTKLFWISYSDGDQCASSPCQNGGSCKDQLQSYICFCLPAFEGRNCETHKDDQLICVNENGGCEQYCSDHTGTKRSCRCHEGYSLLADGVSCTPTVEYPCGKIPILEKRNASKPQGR
# T1 sequence (P08709 213-466 limits assumed): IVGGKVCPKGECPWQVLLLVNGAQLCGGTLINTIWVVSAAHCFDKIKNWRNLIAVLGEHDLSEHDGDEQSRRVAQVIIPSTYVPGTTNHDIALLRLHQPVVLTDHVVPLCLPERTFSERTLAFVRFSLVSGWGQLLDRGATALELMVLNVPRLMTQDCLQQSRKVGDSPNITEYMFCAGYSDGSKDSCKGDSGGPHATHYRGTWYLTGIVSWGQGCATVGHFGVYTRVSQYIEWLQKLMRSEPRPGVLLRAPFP
# Description: (§1) Ten 8-fold serial dilutions of peptides (10 mM DMSO stocks) were performed in DMSO and then added to TCNB (50 mM Tris-HCl pH 7.2, 150 mM NaCl, 10 mM CaCl2, 0.05% Brij-35) and sonicated. 50 μL of the peptide dilutions were added to microtitre plates (96 well, black non-binding surface, Corning, 3650) and incubated for 5 minutes at room temperature with 4 nM activated human kallikrein (final concentration after addition of fluorogenic substrate: 1 nM). The samples were then incubated for 1 hour at room temperature with 2 mM H-Pro-Phe-Arg-AMC (final concentration 500 μM). Relative Fluorescence Units (RFU) were measured at excitation/emission 360 nm/460 nm by a SpectraMax M3.
# (§2) To determine the specificity of peptide inhibitors, an IC50 assay, as described in Example 4, was performed on a variety of serine proteases related to human plasma kallikrein. The enzymes tested include mouse plasma kallikrein (R&D Systems, Minneapolis, Minn.), and the human enzymes Factor VIIa (Enzyme Research Laboratories, South Bend, Ind.), Factor Xa (Enzyme Research Laboratories, South Bend, Ind.), Factor XIa (Enzyme Research Laboratories, South Bend, Ind.), Factor XIIa (Enzyme Research Laboratories, South Bend, Ind.), tissue kallikrein KLK13 (R&D Systems, Minneapolis, Minn.), thrombin (Enzyme Research Laboratories, South Bend, Ind.) and plasmin (Enzyme Research Laboratories, South Bend, Ind.).
# (§3) Each enzyme was tested with the following specific fluorgenic substrates (available from Bachem; Torrance, Calif.): mouse plasma kallikrein (Pro-Phe-Arg-AMC), Factor VIIa (Boc-Val-Pro-Arg-AMC), Factor Xa (Boc-Gln-Gly-Arg-AMC), Factor XIa (Boc-Gln-Gly-Arg-AMC), Factor XIIa (Boc-Gln-Gly-Arg-AMC), KLK13 (Boc-Val-Pro-Arg-AMC), thrombin (Boc-Val-Pro-Arg-AMC) and plasmin (Boc-Val-Leu-Lys-AMC). Peptide inhibitors R2006, R2010, R2012, R2019, R2023, R2030, R2036, R2041, R2047, R2104 and R2051 were assayed.
# thrombin = biological target: T2, thrombin (Homo sapiens, UniProt P00734); test: Inhibitor specificity IC50 assay, thrombin (Boc-Val-Pro-Arg-AMC); details: substrate Boc-Val-Pro-Arg-AMC
# T2 construct: thrombin (Enzyme Research Laboratories, South Bend, Ind.); purchased Enzyme Research Laboratories
# Description: (§4) Activated human plasma kallikrein (Enzyme Research Laboratories, HPKa 1303) was reacted with H-Pro-Phe-Arg-7-amido-4-methylcoumarin (H-Pro-Pre-Arg-AMC) (a fluorogenic substrate for plasma as well as pancreatic and urinary kallikreins; Bachem I-1295) and candidate inhibitory peptides to determine the IC50 of the inhibitor.
# as §1, §2, §3
# Factor Xa = biological target: T3, Factor Xa (Homo sapiens, UniProt P00742); test: Inhibitor specificity IC50 assay, Factor Xa (Boc-Gln-Gly-Arg-AMC); details: substrate Boc-Gln-Gly-Arg-AMC
# T3 construct: Factor Xa (Enzyme Research Laboratories, South Bend, Ind.); purchased Enzyme Research Laboratories
# Description: as §4, §1, §2, §3
# Factor XIIa = biological target: T4, Factor XIIa (Homo sapiens, UniProt P00748); test: Inhibitor specificity IC50 assay, Factor XIIa (Boc-Gln-Gly-Arg-AMC); details: substrate Boc-Gln-Gly-Arg-AMC
# T4 construct: Factor XIIa (Enzyme Research Laboratories, South Bend, Ind.); purchased Enzyme Research Laboratories
# T4 sequence (P00748 373-615 limits assumed): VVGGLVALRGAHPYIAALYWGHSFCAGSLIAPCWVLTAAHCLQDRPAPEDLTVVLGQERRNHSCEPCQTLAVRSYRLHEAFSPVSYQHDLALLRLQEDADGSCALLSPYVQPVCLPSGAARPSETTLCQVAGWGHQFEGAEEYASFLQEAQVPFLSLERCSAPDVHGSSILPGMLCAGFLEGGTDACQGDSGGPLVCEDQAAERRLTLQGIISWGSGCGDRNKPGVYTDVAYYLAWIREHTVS
# Description: as §4, §1, §2, §3
# Factor XIa = biological target: T5, Factor XIa (Homo sapiens, UniProt P03951); test: Inhibitor specificity IC50 assay, Factor XIa (Boc-Gln-Gly-Arg-AMC); details: substrate Boc-Gln-Gly-Arg-AMC
# T5 construct: Factor XIa (Enzyme Research Laboratories, South Bend, Ind.); purchased Enzyme Research Laboratories
# Description: as §4, §1, §2, §3
# tissue kallikrein KLK13 = biological target: T6, tissue kallikrein KLK13 (Homo sapiens, UniProt Q9UKR3); test: Inhibitor specificity IC50 assay, KLK13 (Boc-Val-Pro-Arg-AMC); details: substrate Boc-Val-Pro-Arg-AMC
# T6 construct: purchased R&D Systems
# T6 sequence (Q9UKR3 17-277): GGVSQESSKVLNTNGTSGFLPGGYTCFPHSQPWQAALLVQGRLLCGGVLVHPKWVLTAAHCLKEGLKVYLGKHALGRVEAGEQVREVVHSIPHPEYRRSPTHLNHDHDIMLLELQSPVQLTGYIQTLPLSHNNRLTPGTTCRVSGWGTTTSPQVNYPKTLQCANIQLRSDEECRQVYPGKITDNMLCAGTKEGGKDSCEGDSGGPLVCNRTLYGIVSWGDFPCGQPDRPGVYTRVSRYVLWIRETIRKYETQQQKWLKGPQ
# Description: as §4, §1, §2, §3
# plasmin = biological target: T7, plasmin (Homo sapiens, UniProt P00747); test: Inhibitor specificity IC50 assay, plasmin (Boc-Val-Leu-Lys-AMC); details: substrate Boc-Val-Leu-Lys-AMC
# T7 construct: plasmin (Enzyme Research Laboratories, South Bend, Ind.); purchased Enzyme Research Laboratories
# Description: as §4, §1, §2, §3
# human plasma kallikrein = biological target: T8, human plasma kallikrein (Homo sapiens, UniProt P03952); test: Enzyme inhibition assay (fluorogenic substrate H-Pro-Phe-Arg-AMC)
# T8 construct: purchased Enzyme Research Laboratories HPKa 1303
# In short: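 IC50 was determined from AMC fluorescence (ex 360/em 460 nm) after 1 h of reaction at room temperature with 500 μM final substrate. Before this, peptides in ten 8-fold serial dilutions were incubated 5 min with 1 nM final activated kallikrein. The buffer was Tris-HCl pH 7.2 containing NaCl, CaCl2 and Brij-35.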
# [1] = Kallikrein inhibitory activity, 1 nM activated human kallikrein, 500 μM H-Pro-Phe-Arg-AMC, 1 hour room temperature, read-out: Avg. IC50
# T3 sequence (P00742 41-179 limits assumed): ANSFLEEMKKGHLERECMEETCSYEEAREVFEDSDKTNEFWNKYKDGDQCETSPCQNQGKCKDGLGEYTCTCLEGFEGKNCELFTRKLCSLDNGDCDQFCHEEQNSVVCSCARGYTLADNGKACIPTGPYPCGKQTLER
# T3 sequence (P00742 235-488 limits assumed): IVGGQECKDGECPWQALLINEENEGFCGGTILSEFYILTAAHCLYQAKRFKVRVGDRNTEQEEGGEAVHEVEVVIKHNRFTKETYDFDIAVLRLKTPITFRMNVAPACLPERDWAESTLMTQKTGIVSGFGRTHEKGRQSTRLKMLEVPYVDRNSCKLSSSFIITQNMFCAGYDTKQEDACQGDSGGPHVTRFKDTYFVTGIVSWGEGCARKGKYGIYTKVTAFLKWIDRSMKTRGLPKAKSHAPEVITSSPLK
# T8 sequence (P03952 20-390 limits assumed): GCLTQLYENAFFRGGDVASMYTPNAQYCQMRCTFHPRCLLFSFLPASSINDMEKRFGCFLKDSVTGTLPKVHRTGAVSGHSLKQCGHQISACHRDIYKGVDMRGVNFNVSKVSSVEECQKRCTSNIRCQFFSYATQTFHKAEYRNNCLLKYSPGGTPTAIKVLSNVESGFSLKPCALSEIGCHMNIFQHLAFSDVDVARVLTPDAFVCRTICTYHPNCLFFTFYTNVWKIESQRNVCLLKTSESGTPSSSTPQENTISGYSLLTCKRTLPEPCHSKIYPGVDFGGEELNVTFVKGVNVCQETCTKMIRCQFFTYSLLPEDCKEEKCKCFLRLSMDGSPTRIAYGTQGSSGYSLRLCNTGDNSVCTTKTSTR
# T8 sequence (P03952 391-638 limits assumed): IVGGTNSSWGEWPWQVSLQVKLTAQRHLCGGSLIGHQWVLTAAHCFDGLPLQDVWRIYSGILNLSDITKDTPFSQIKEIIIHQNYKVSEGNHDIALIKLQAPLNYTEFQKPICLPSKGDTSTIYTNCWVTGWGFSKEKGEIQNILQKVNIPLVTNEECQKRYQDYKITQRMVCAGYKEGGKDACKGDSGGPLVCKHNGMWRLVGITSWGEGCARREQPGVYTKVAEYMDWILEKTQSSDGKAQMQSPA
# T5 sequence (P03951 19-387 limits assumed): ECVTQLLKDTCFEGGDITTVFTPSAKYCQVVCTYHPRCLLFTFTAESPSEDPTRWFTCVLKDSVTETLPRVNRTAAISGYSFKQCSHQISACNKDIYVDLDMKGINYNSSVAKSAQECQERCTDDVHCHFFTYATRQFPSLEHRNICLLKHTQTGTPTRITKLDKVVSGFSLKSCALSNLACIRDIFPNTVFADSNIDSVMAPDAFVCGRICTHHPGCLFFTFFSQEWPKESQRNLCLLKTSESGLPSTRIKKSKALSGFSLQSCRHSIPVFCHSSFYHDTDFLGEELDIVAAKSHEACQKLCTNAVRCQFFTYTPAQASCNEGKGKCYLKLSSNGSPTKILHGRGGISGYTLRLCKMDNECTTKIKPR
# T5 sequence (P03951 388-625 limits assumed): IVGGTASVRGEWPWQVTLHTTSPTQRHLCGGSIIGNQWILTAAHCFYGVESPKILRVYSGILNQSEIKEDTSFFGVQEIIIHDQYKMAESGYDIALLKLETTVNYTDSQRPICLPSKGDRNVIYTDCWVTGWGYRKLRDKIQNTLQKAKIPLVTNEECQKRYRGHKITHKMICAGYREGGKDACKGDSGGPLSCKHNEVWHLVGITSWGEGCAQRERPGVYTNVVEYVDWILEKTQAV
# T7 sequence (P00747 97-580 limits assumed): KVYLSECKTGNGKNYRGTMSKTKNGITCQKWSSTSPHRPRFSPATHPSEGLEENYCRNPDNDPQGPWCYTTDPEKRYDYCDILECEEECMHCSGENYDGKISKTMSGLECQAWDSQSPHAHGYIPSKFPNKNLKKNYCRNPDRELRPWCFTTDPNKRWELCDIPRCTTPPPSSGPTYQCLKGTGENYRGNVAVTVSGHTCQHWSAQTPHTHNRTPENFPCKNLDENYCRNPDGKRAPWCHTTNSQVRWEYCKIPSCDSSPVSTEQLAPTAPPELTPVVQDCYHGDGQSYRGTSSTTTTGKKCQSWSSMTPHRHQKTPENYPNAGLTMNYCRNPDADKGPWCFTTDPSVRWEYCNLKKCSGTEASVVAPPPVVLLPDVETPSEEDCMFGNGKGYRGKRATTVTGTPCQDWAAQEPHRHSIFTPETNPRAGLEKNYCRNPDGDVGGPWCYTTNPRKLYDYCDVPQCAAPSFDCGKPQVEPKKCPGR
# T7 sequence (P00747 581-810 limits assumed): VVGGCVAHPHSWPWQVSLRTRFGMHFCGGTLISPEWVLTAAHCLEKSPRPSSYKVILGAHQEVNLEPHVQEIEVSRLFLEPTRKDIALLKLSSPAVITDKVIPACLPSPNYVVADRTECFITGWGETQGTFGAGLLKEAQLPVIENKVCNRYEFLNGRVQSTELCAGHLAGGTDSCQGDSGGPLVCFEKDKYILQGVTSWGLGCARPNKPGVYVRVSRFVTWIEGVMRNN
Compound,IC50 (Factor VIIa) [µM],IC50 (thrombin) [µM],IC50 (Factor Xa) [µM],IC50 (Factor XIIa) [µM],IC50 (Factor XIa) [µM],IC50 (tissue kallikrein KLK13) [µM],IC50 (human plasma kallikrein; [1]) [µM],also measured
"CC[C@H](C)[C@@H]1NC(=O)[C@H](CO)NC(=O)[C@H](CCC(=O)O)NC(=O)[C@@H](NC(=O)[C@@H](N)CCSC)CSCc2cccc(c2)CSC[C@@H](C(=O)N[C@@H](CCCNC(=N)N)C(=O)N[C@H](C(N)=O)C(C)C)NC1=O [Compound R2006, [mXylyl(2,6)]MCESICRV-NH2] (H-MCESICRV-NH2; linker 2-6 via mXylylene)",> 100,> 100,> 7,> 100,> 11.6,> 100,,"IC50 (plasmin): > 100 µM; IC50 (human plasma kallikrein; Inhibitor specificity table, read-out: Human Kallikrein IC50): 0.025 µM"
"CSCC[C@H](N)C(=O)N[C@H]1CSCc2cccc(c2)CSC[C@@H](C(=O)N[C@@H](CCCNC(=N)N)C(=O)N[C@H](C(N)=O)C(C)C)NC(=O)[C@H](c2ccccc2)NC(=O)[C@H](CO)NC(=O)[C@H](CCC(=O)O)NC1=O [Compound R2012, [mXylyl(2,6)]MCES-Phg-CRV-NH2] (H-MCES[Phg]CRV-NH2; linker 2-6 via mXylylene; N-terminus assumed)",,,,,> 8.3,> 100,0.0083,
"CC[C@H](C)[C@@H]1NC(=O)[C@H](CO)NC(=O)[C@@H](C)NC(=O)[C@@H](NC(C)=O)CSCc2cccc(c2)CSC[C@@H](C(=O)N[C@@H](CCCNC(=N)N)C(=O)N[C@H](C(N)=O)C(C)C)NC1=O [Compound R2047, [mXylyl(1,5)]Ac-C-a-SICRV-NH2] (Ac-C[dA]SICRV-NH2; linker 1-5 via mXylylene)",> 100,> 100,> 100,> 100,> 13.8,> 100,,IC50 (plasmin): > 100 µM
"CSCC[C@H](N)C(=O)N[C@@H](CS)C(=O)N[C@@H](CC(N)=O)C(=O)N[C@@H](Cc1ccc(O)cc1)C(=O)N[C@@H](Cc1c[nH]c2ccccc12)C(=O)N[C@@H](CO)C(=O)N1CCC[C@H]1C(=O)N[C@@H](Cc1c[nH]c2ccccc12)C(=O)N[C@H](C(=O)N[C@@H](CCC(=O)O)C(=O)N[C@@H](CS)C(=O)N[C@@H](CO)C(=O)N[C@@H](C)C(N)=O)[C@@H](C)O [Compound R2104, MCNYWSPWTECSA-NH2] (H-MCNYWSPWTECSA-NH2)",> 100,> 100,> 100,> 100,> 5,> 100,0.0034,
CC(C)(C)[C@H](NC(=O)[C@H](CCCNC(=N)N)NC(=O)[C@@H]1CSCc2cccc(c2)CC(=O)NCCC(=O)N2CCC[C@H]2C(=O)N[C@@H](C2CCCCC2)C(=O)N1)C(N)=O [Compound R2258],,,,,,,0.498,
CC(C)(C)[C@H](NC(=O)[C@H](CCCNC(=N)N)NC(=O)[C@@H]1CSCc2cccc(c2)/C=C/CC(=O)N2CCC[C@H]2C(=O)N[C@@H](C2CCCCC2)C(=O)N1)C(N)=O [Compound R2259],,,,,,,1.46,
CC(C)(C)[C@H](NC(=O)[C@H](CCCNC(=N)N)NC(=O)[C@@H]1CSCc2cccc(c2)/C=C/CCC(=O)N2CCC[C@H]2C(=O)N[C@@H](C2CCCCC2)C(=O)N1)C(N)=O [Compound R2260],,,,,,,4.68,
CC(C)(C)[C@H](NC(=O)[C@H](CCCNC(=N)N)NC(=O)[C@@H]1CSCc2cccc(c2)C/C=C/CC(=O)N2CCC[C@H]2C(=O)N[C@@H](C2CCCCC2)C(=O)N1)C(N)=O [Compound R2261],,,,,,,0.164,
CC(C)(C)[C@H](NC(=O)[C@H](CCCNC(=N)N)NC(=O)[C@@H]1C/C=C/c2cccc(c2)OCCCC(=O)N2CCC[C@H]2C(=O)N[C@@H](C2CCCCC2)C(=O)N1)C(N)=O [Compound R2262],,,,,,,> 100,
CC(C)(C)[C@H](NC(=O)[C@H](CCCNC(=N)N)NC(=O)[C@@H]1CCCc2cccc(c2)OCCCC(=O)N2CCC[C@H]2C(=O)N[C@@H](C2CCCCC2)C(=O)N1)C(N)=O [Compound R2263],,,,,,,> 100,
